According to publication PMC7987348, “Structural basis for human TRPC5 channel inhibition by two distinct inhibitors” (eLife, 2021):
Where two headings read alike, the source gives them in different places.

Key:
TRPC5 = test system: TRPC5; set-up: method as in Richter et al., 2014; Zhou et al., 2017; Zhu et al., 2015; settings: ref Richter et al., 2014; Zhou et al., 2017; Zhu et al., 2015; read-out: IC50 for inhibition of TRPC5; cited from earlier work
hTRPC5_1-764 = biological target: T1, hTRPC5_1-764 (Homo sapiens, UniProt Q9UL62); assay: FLIPR calcium assay, C-terminally truncated construct hTRPC5_1-764; settings: 14 mM extracellular calcium; AD293 cells
T1 sequence (Q9UL62 1-764): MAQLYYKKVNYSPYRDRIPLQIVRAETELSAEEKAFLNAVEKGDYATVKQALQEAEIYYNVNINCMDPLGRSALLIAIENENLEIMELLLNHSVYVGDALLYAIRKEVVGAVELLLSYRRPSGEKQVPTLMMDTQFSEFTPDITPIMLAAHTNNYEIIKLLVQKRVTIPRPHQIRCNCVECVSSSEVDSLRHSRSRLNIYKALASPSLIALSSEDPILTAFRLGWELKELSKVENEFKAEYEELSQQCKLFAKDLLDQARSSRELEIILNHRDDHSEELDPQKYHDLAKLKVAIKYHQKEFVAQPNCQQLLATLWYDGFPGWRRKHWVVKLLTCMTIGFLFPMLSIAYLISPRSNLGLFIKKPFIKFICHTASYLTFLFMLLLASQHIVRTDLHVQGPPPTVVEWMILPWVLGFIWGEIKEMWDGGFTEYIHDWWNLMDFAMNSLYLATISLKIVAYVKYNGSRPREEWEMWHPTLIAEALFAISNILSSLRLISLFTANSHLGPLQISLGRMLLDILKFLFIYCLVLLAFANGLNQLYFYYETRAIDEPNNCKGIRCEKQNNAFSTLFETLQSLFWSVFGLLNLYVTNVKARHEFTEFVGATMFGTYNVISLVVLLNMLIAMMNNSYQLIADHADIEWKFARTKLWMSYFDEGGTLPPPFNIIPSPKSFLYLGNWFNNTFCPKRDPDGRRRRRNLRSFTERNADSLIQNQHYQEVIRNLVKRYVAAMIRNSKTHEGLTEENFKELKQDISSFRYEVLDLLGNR

hTRPC5 N443L = biological target: T2, hTRPC5 N443L (Homo sapiens, UniProt Q9UL62, N443L); assay: FLIPR calcium assay, hTRPC5 mutant N443L; format: cell-based
T2 construct: We use full-length nontagged hTRPC5 construct for FLIPR assay unless indicated otherwise; expressed in transfected cells; host or cells: AD293
T2 sequence (Q9UL62 1-973 N443L): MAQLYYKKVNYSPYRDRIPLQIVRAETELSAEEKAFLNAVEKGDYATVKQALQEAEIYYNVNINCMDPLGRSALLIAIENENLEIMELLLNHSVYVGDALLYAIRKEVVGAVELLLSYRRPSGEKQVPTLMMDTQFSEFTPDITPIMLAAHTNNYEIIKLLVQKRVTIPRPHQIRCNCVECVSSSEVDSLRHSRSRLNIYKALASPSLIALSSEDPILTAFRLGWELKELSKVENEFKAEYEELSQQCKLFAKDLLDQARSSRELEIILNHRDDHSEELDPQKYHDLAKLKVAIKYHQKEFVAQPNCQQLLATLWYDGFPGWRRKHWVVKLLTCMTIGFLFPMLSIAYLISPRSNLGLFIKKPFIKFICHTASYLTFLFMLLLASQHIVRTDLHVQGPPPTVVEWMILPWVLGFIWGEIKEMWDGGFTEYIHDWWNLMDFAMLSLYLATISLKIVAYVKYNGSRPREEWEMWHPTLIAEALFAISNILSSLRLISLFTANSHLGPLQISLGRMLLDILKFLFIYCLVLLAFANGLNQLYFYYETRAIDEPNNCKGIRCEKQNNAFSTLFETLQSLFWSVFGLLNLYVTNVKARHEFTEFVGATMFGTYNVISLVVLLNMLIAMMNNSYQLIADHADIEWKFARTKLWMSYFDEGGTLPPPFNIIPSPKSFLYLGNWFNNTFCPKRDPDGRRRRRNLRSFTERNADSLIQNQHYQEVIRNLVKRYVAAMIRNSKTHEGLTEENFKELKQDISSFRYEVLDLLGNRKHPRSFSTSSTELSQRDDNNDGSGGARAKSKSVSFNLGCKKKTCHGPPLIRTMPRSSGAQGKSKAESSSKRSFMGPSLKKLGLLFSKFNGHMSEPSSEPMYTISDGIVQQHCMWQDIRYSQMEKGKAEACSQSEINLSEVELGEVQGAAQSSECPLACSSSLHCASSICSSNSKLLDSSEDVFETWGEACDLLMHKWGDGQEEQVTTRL
Method: […]. Then the suspended cell culture was further diluted for 5.4- to 7-fold with culture medium and seeded onto black well, clear bottom, poly-D-lysine-coated 96-well plate (Costar) and cultured overnight. We use full-length nontagged hTRPC5 construct for FLIPR assay unless indicated otherwise. hTRPC5 plasmids were transfected into AD293 cells (60-80% confluence) with PEI. 30–40 hr post-transfection, culture medium was discarded and cells were incubated with 50 μl per well of 4 μM Rhod-2/AM (AAT Bioquest) in TARODES’s buffer (10 mM HEPES, 150 mM NaCl, 4 mM KCl, 2 mM MgCl2, 2 mM CaCl2, 11 mM glucose, pH 7.4) supplemented with 0.02% Pluronic F-127 (Sigma) for 5 min in dark at room temperature. Then dye was removed and replaced with 50 μl of TARODE’s buffer per well. The application of compounds and detection of intracellular calcium elevation were performed using FLIPR-TETRA (Molecular Devices) at room temperature (25–27°C). Fluorescence signals were read with excitation/emission at 510–545/565–625 nm.
[…]. Then fluorescence was measured for 300 s.
Buffer A contains 2× concentration of working concentration of inhibitor. […]. for control-Min, both buffer A and buffer B were replaced by TARODE’s buffer.
[…]; the average of fluorescence value of last 20 time points was considered as the ‘end fluorescence’. The value of ‘end fluorescence’ minus ‘start fluorescence’ was considered as ‘signal value’ for each well. […].
Three independent experiments were performed on different days (biological replicates), with each experiment containing three replicates (technique replicates).

TRPC3/6 = test system: TRPC3/6; set-up: method as in Richter et al., 2014; settings: ref Richter et al., 2014; cited from earlier work

## Clc1ccc(Cn2c(CN3CCCC3)nc3ccccc32)cc1 [CMZ, clemizole]
TRPC5
  IC50: 1 to 1.3 µM
hTRPC5_1-764
  inhibition of hTRPC5_1-764: can be inhibited
hTRPC5 N443L; CMZ
  Hill slope: −2.42
hTRPC5 N443L; CMZ, 14 mM extracellular calcium, read-out: IC50
  IC50: 10.4 µM
hTRPC5 N443L; CMZ, log of IC50 in μM, logIC50 ± SEM, n = 3, read-out: LogIC50 (converted)
  IC50: 10.5 µM
hTRPC5 N443L; read-out: normalized RFU (% WT), Clemizole 0.400391 μM, 14 mM Ca2+, each column one independent experiment
  remaining activity at 0.400391 µM: 89.5%
hTRPC5 N443L; read-out: normalized RFU (% WT), Clemizole 0.800781 μM, 14 mM Ca2+, each column one independent experiment
  remaining activity at 0.800781 µM: 64.6%
hTRPC5 N443L; read-out: normalized RFU (% WT), Clemizole 3.20312 μM, 14 mM Ca2+, each column one independent experiment
  remaining activity at 3.20312 µM: 56.3%
hTRPC5 N443L; read-out: normalized RFU (% WT), Clemizole 6.40625 μM, 14 mM Ca2+, each column one independent experiment
  remaining activity at 6.40625 µM: 52.8%
TRPC3/6
  fold more potent against TRPC5 than TRPC3/6: 10 fold
